Assay results reported in patent US8901138B2, “Sulfoximine substituted quinazolines for pharmaceutical compositions” (Boehringer Ingelheim International GmbH, priority 2012, dated 2014).

target: T1, MNK2a (Homo sapiens, UniProt Q9HBH9); experiment: MNK2a in vitro kinase assay (assay 1), ADP-Glo; type: biochemical; details: preactivated GST-MNK2a, 20 μM ATP, read-out: MNK2 IC50
T1 construct: made in house
Outline: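 Preactivated GST-MNK2a (10 nM) with eIF4E peptide (25 μM) and ATP (20 μM) in HEPES/DTT/MgCl2 buffer, 90 min at room temperature, final DMSO <3%. ADP formed read by ADP-Glo luminescence and normalised to vehicle and 20 μM reference-inhibitor controls; IC50 from dose-response curves.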

T1 sequence (Q9HBH9 whole entry): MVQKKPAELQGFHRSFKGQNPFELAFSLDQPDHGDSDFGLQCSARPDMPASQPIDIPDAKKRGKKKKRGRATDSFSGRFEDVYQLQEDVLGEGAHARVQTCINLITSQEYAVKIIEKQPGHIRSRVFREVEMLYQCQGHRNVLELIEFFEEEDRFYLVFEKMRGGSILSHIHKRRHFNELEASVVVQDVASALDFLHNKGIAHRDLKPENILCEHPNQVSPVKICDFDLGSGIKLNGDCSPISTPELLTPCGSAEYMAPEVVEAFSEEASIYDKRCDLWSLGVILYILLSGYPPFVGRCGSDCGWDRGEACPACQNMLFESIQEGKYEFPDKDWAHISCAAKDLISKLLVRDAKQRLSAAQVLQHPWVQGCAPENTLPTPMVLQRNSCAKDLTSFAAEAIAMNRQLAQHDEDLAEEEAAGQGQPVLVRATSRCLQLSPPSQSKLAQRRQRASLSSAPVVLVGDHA

Row | SMILES | IC50
1 | Cc1cc(N=S(C)(C)=O)cc2ncnc(Nc3ccc(F)cc3O[C@@H]3CCNC3)c12 [Example 3.11] | 32 nM
2 | CS(C)(=O)=Nc1cc(OC2CC2)c2c(Nc3ccc(F)cc3O[C@H]3CCOC3)ncnc2c1 [Example 1.25] | 48 nM
3 | Cc1cc(N=S(C)(C)=O)cc2ncnc(Nc3ccc(F)cc3O[C@@H]3CCCN(CCC#N)C3)c12 [Example 6.20] | 4 nM
4 | Cc1cc(N=S2(=O)CCCC2)cc2ncnc(Nc3cccnc3OC3COCCOC3)c12 [Example 2.88] | 5 nM
5 | Cc1cc(N=S(C)(=O)c2ccccn2)cc2ncnc(Nc3ccc(F)cc3O[C@H]3CCOC3)c12 (stereo partly shown) [Example 2.38] | 7 nM
6 | Cc1cc(N=S(C)(C)=O)cc2ncnc(Nc3cccnc3O[C@H]3CC[C@H](NC(=O)OC(C)(C)C)CC3)c12 [Example 2.10] | 4 nM
7 | Cc1cc(N=S(C)(C)=O)cc2ncnc(Nc3cccnc3O[C@@H]3CCCN(CCO)C3)c12 [Example 6.10] | 8 nM
8 | CS(C)(=O)=Nc1cc(F)c2c(Nc3ccc(F)cc3O[C@H]3CC[C@@](C)(O)CC3)ncnc2c1 [Example 2.35] | 4 nM
9 | CCS(C)(=O)=Nc1cc(C)c2c(Nc3ccc(F)cc3O[C@@H]3CO[C@H]4[C@@H]3OC[C@H]4O)ncnc2c1 (stereo partly shown) [Example 2.33] | 3 nM
10 | Cc1cc(N=S2(=O)CCNCC2)cc2ncnc(Nc3ccc(F)cc3O[C@@H]3CO[C@H]4[C@@H]3OC[C@H]4O)c12 [Example 3.3] | 5 nM
11 | Cc1cc(N=S(C)(C)=O)cc2ncnc(Nc3cccnc3O[C@@H]3CCCNC3)c12 [Example 3.6] | 69 nM
12 | Cc1cc(N=S(C)(C)=O)cc2ncnc(Nc3ccc(F)cc3OC3(C)CC3)c12 [Example 1.28] | 4 nM

Results, then the compound that gave them:

Row | IC50 | SMILES
13 | 52 nM | Cc1cc(N=S(C)(C)=O)cc2ncnc(Nc3cccnc3O[C@@H]3CCCN(C(=O)OC(C)(C)C)C3)c12 [Example 2.23]
14 | 46 nM | Cc1cc(N=S(C)(C)=O)cc2ncnc(Nc3ccc(F)cc3O[C@@H]3CCCN(C(=O)OC(C)(C)C)C3)c12 [Example 2.27]
15 | 6 nM | COc1cc(N=S(C)(C)=O)cc2ncnc(Nc3ccc(F)cc3O[C@H]3CC[C@H](OC)CC3)c12 [Example 5.3]
16 | 4 nM | Cc1cc(N=S(C)(C)=O)cc2ncnc(Nc3ccc(F)cc3O[C@@H]3CC[C@@H]4OCC[C@@H]43)c12 [Example 2.124]
17 | 2 nM | CO[C@H]1CC[C@H](Oc2cc(F)ccc2Nc2ncnc3cc(N=S4(=O)CCCCC4)cc(C)c23)CC1 [Example 2.84]
18 | 1 nM | Cc1cc(N=S(C)(C)=O)cc2ncnc(Nc3ccc(F)cc3O[C@@H]3CCC[C@H]3O)c12 [Example 7.16]

tested on: phosphorylated elF4E; experiment: not given; details: cell culture cells transfected with MNK2 (MNK2a or MNK2b) or MNK1; cited from earlier work

Row | SMILES | reduction of phosphorylated elF4E
19 | Nc1ncnc2n[nH]c(Nc3ccc(F)cc3)c12 [CGP57380] | strong reduction

target: MNK1a (Homo sapiens, UniProt Q9BUB5); experiment: MNK1 in vitro kinase assay (assay 2), Z'-LYTE; type: biochemical; details: compound concentration of 1 μM
Outline: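 Pre-activated GST-MNK1a (13.5-54 ng) with 2 μM Ser/Thr 07 FRET peptide in 50 mM HEPES pH 7.5, 10 mM MgCl2, 2 mM MnCl2, 1 mM EGTA, 1 mM DTT, 1% DMSO; 1 h kinase then 1 h development at room temperature. Coumarin/fluorescein emission ratio gives % phosphorylation; sigmoidal dose-response fit.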

MNK1a, sequence (Q9BUB5 1-424 isoform Q9BUB5-2): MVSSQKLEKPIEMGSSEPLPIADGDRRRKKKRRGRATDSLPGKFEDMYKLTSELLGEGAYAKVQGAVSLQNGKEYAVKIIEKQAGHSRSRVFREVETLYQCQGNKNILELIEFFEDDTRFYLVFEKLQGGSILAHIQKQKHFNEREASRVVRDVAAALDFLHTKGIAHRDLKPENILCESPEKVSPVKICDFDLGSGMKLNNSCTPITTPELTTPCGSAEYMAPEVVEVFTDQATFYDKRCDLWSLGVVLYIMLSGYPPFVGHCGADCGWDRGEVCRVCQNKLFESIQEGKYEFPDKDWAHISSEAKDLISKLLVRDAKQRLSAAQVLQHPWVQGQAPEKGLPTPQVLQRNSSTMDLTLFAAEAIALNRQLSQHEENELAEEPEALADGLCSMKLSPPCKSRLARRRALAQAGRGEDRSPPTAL

Row | SMILES | inhibition at 1 µM
20 | Cc1cc(N=S(C)(C)=O)cc2ncnc(Nc3ccc(F)cc3O[C@@H]3CCNC3)c12 [Example 3.11] | 78%
21 | CS(C)(=O)=Nc1cc(OC2CC2)c2c(Nc3ccc(F)cc3O[C@H]3CCOC3)ncnc2c1 [Example 1.25] | 66%
22 | Cc1cc(N=S(C)(C)=O)cc2ncnc(Nc3ccc(F)cc3O[C@@H]3CCCN(CCC#N)C3)c12 [Example 6.20] | 93%
23 | Cc1cc(N=S2(=O)CCCC2)cc2ncnc(Nc3cccnc3OC3COCCOC3)c12 [Example 2.88] | 95%
24 | Cc1cc(N=S(C)(=O)c2ccccn2)cc2ncnc(Nc3ccc(F)cc3O[C@H]3CCOC3)c12 (stereo partly shown) [Example 2.38] | 82%
25 | Cc1cc(N=S(C)(C)=O)cc2ncnc(Nc3cccnc3O[C@H]3CC[C@H](NC(=O)OC(C)(C)C)CC3)c12 [Example 2.10] | 92%
26 | Cc1cc(N=S(C)(C)=O)cc2ncnc(Nc3cccnc3O[C@@H]3CCCN(CCO)C3)c12 [Example 6.10] | 89%
27 | CS(C)(=O)=Nc1cc(F)c2c(Nc3ccc(F)cc3O[C@H]3CC[C@@](C)(O)CC3)ncnc2c1 [Example 2.35] | 95%
28 | CCS(C)(=O)=Nc1cc(C)c2c(Nc3ccc(F)cc3O[C@@H]3CO[C@H]4[C@@H]3OC[C@H]4O)ncnc2c1 (stereo partly shown) [Example 2.33] | 100%
29 | Cc1cc(N=S2(=O)CCNCC2)cc2ncnc(Nc3ccc(F)cc3O[C@@H]3CO[C@H]4[C@@H]3OC[C@H]4O)c12 [Example 3.3] | 95%
30 | Cc1cc(N=S(C)(C)=O)cc2ncnc(Nc3cccnc3O[C@@H]3CCCNC3)c12 [Example 3.6] | 80%
31 | Cc1cc(N=S(C)(C)=O)cc2ncnc(Nc3ccc(F)cc3OC3(C)CC3)c12 [Example 1.28] | 89%

The next lines start with the values.

Row | inhibition at 1 µM | SMILES
32 | 66% | Cc1cc(N=S(C)(C)=O)cc2ncnc(Nc3cccnc3O[C@@H]3CCCN(C(=O)OC(C)(C)C)C3)c12 [Example 2.23]
33 | 78% | Cc1cc(N=S(C)(C)=O)cc2ncnc(Nc3ccc(F)cc3O[C@@H]3CCCN(C(=O)OC(C)(C)C)C3)c12 [Example 2.27]
34 | 90% | COc1cc(N=S(C)(C)=O)cc2ncnc(Nc3ccc(F)cc3O[C@H]3CC[C@H](OC)CC3)c12 [Example 5.3]
35 | 83% | Cc1cc(N=S(C)(C)=O)cc2ncnc(Nc3ccc(F)cc3O[C@@H]3CC[C@@H]4OCC[C@@H]43)c12 [Example 2.124]
36 | 91% | CO[C@H]1CC[C@H](Oc2cc(F)ccc2Nc2ncnc3cc(N=S4(=O)CCCCC4)cc(C)c23)CC1 [Example 2.84]

same assay, conditions: pre-activated GST-MNK1a

Row | IC50 | SMILES
37 | 25 nM | Cc1cc(N=S(C)(C)=O)cc2ncnc(Nc3ccc(F)cc3O[C@@H]3CCC[C@H]3O)c12 [Example 7.16]
